Molecules are shown by their SMILES. Where two headings read alike, the source gives them in different places.

One data set concerns the target T1, AR (Homo sapiens, UniProt P10275, T878A).
T1 construct: endogenous in cells; host or cells: LNCaP
T1 sequence (P10275 1-920 T878A): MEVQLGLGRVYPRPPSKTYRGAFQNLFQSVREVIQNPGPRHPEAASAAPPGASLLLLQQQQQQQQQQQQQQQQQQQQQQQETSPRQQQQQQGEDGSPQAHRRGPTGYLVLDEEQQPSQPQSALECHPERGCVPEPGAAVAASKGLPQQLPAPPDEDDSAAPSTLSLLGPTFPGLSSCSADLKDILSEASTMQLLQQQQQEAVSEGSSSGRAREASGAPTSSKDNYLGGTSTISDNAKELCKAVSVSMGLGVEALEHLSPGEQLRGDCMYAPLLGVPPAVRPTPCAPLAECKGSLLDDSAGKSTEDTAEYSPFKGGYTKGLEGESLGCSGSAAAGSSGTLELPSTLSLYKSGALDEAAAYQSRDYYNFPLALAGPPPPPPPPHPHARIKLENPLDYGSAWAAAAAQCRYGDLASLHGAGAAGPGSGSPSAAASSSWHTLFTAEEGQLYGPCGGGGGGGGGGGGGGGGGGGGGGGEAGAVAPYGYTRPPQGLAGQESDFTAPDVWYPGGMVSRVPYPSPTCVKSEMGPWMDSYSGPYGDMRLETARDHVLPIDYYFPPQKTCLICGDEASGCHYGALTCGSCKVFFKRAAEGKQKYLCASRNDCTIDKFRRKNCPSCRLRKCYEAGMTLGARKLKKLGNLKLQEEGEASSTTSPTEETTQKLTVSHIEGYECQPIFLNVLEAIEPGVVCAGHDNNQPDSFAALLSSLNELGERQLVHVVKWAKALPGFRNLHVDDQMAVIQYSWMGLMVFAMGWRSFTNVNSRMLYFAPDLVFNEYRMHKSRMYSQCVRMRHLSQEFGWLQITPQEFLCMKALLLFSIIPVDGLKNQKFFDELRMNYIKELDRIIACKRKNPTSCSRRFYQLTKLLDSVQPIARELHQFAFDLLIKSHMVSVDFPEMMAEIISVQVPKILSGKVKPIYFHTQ
Kind of data set: In vitro AR degradation activity test in LNCaP cells (ELISA, OD450). Type of data set: cell-based. The following applies: for DC50: LNCaP cells, 24 hours; for AR degradation activity, improvement compared to Galeterone: ratio to Galeterone DC50. The method in brief: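 AR in protein-normalized lysates was quantified by sandwich ELISA with HRP detection at OD450. Degradation rate (%) was computed from OD450 max/min controls, and IC50 was derived from it.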
On the technique in general: An ELISA detects its analyte on a solid surface through an enzyme-linked reagent.

Data set [1] can be described thus: In vivo pharmacokinetics in rats after oral gavage. The following applies: male SD rats, PO 10 mg/kg. The procedure:
Male SD rats were randomly divided into 6 groups, 3 rats per group. The rats were fasted but not water-deprived for 12-14 h one day before dosing. The test samples were then dissolved in a solvent of 5% DMSO+30% PEG400+65% (0.5% MC) and administered by gavage at 10 mg/kg. Food was provided 4 h after dosing. Blood samples (0.10 mL) were collected via the orbital sinus at 0, 15, 30 min, 1, 2, 4, 6, 8, and 24 h, with EDTA-K2 as anticoagulant. Blood samples were placed on ice after collection and centrifuged to separate plasma within 30 minutes (centrifugation conditions: 5000 rpm, 10 minutes, 4° C.). 50.0 μL of plasma sample (taken from −80° C. freezer, thawed naturally at room temperature and vortexed for 30 seconds) was added to a 1.5 mL centrifuge tube, followed by addition of 500 μL internal standard solution (methanol (TEDIA, HPLC grade), acetonitrile (TEDIA, HPLC grade), formic acid (FA, ACROS ORGANICS, HPLC grade), water was laboratory-made ultrapure water (100.0 ng·mL−1)). The mixture was vortexed for 60 seconds and centrifuged for 3 minutes (centrifugal force 12000 rpm). 100 μL of the supernatant was transferred to a 96-well injection plate containing an equal volume of water, mixed by shaking, and analyzed by LC-MS/MS with an injection volume of 10 μL. The data acquisition and control system software was Analyst 1.5.1 software (Applied Biosystem). The chromatographic sample peaks were integrated automatically. The ratio of sample peak area to internal standard peak area was used as an indicator for regression with sample concentration.
The pharmacokinetic parameters of representative compounds of the present invention were tested in male SD rats after oral gavage administration at 10 mg/kg according to the above conventional method to examine the pharmacokinetic characteristics of the compounds of the present invention in rats.

Data set [2] deals with androgen-dependent organs. Kind of data set: Hershberger assay, in vivo anti-androgenic activity. The following applies: castrated male rats, 0.4 mg/kg testosterone propionate, 20 mg/kg QD oral, 10 days. Details: species or system Sprague-Dawley rats. The protocol:
The Hershberger assay was used to detect the in vivo anti-androgenic signal transduction activity of the compounds of the present invention. In this assay, compounds of the present invention (14, 33 and 37) were administered to prepubertal castrated male Sprague-Dawley rats in the presence of 0.4 mg/kg testosterone propionate (TP), and the weights of androgen-dependent organs were measured. Dosing continued for 10 days, and measurements were made 24 hours after the last dose. The degree of AR antagonism and subsequent organ growth inhibition was evaluated by comparison with castrated controls. The test compounds were orally administered at 20 mg/kg QD and the endpoint evaluation was performed by measuring the weight changes of 2 androgen-sensitive organs (ASO): seminal vesicles with coagulating glands (SVCG) and ventral prostate (VP). Enzalutamide (ENZ) was used as a positive control.

In general, DC50 refers to the concentration at which degradation of the target reaches its halfway point. In general, AUC(0-inf) refers to the area under the concentration-time curve extrapolated to infinity. A lower AUC(0-inf) goes with low exposure. Broadly, the AUC(0-t) is the area under the concentration-time curve up to a stated or last time point. A low value points to less exposure. By Cmax is commonly meant the maximum level reached in the sampled fluid or tissue. Consider `Cc1cn(C2=CCC3C4CC=C5C[C@@H](NC(=O)c6ccc(F)cc6F)CC[C@]5(C)C4CC[C@]23C)cn1` (stereo partly drawn) [Compound 37, N-((3S,10R,13S)-17-(4-methyl-1H-imidazol-1-yl)-10,13-dimethyl-2,3,4,7,8,9,10,11,12,13,14,15-dodecahydro-1H-cyclopenta[a]phenanthren-3-yl)-2,4-difluorobenzamide], for which, at AR, the DC50 came to 1.68 µM and the “AR degradation activity, improvement compared to Galeterone” value was found to be 6.2 times. In data set [1], this compound showed a Kel of 0.124 h⁻¹, an MRTPO of 10.0 h, a T1/2 of 6.02 h and a tmax of 6.00 h. In data set [1] (rat, plasma), this compound yielded an AUC(0-inf) of 24500 ng·h/mL and an AUC(0-t) of 22500 ng·h/mL. Also, in data set [1] (rat, plasma, read-out: Cmax), the Cmax was 1550 ng/mL. In addition, in data set [2], the “Growth of androgen-dependent organs (SVCG and VP weight) compared to the castration group” value (from here on “Growth … compared to the castration group”) was “significantly inhibited the growth of androgen-dependent organs”; the “In vivo anti-androgenic activity compared with enzalutamide” value is reported as “activity comparable to enzalutamide”.

For the compound `Cc1cn(C2=CCC3C4CC=C5C[C@@H](NC(=O)c6ccc(F)cc6)CC[C@]5(C)C4CC[C@]23C)cn1` (stereo partly drawn) [Compound 33, N-((3S,10R,13S)-17-(4-methyl-1H-imidazol-1-yl)-10,13-dimethyl-2,3,4,7,8,9,10,11,12,13,14,15-dodecahydro-1H-cyclopenta[a]phenanthren-3-yl)-4-fluorobenzamide], at AR, the DC50 is 1.28 µM and the “AR degradation activity, improvement compared to Galeterone” value turned out to be 8.1 times. Besides, in data set [1], the Cmax was determined as 6431 ng/mL, the Kel was determined as 0.214 h⁻¹, the MRTPO worked out at 6.03 h and the T1/2 came to 3.28 h. Moreover, the tmax in data set [1] came to 4.00 h. In data set [1] (rat, plasma), the AUC(0-inf) came to 69500 ng·h/mL and the AUC(0-t) is 68900 ng·h/mL. Further, in data set [2], the “Growth … compared to the castration group” value is “significantly inhibited the growth of androgen-dependent organs”; the “In vivo anti-androgenic activity compared with enzalutamide” value is on record as “activity comparable to enzalutamide”.

In data set [1], `Cc1cn(C2=CCC3C4CC=C5C[C@@H](NC(=O)c6ccncc6)CC[C@]5(C)C4CC[C@]23C)cn1` (stereo partly drawn) [Compound 14, N-((3S,10R,13S)-10,13-dimethyl-17-(4-methyl-1H-imidazol-1-yl)-2,3,4,7,8,9,10,11,12,13,14,15-dodecahydro-1H-cyclopenta[a]phenanthren-3-yl)isonicotinamide] gave a Cmax of 2670 ng/mL, a Kel of 0.252 h⁻¹, an MRTPO of 5.12 h and a T1/2 of 2.80 h. In data set [1], this compound came in with a tmax of 2.17 h. In data set [1] (rat, plasma), this compound yielded an AUC(0-inf) of 24800 ng·h/mL and an AUC(0-t) of 24800 ng·h/mL. Further, in data set [2], the “Growth … compared to the castration group” value was “significantly inhibited the growth of androgen-dependent organs”; the “In vivo anti-androgenic activity compared with enzalutamide” value is “activity comparable to enzalutamide”.

As for `Cc1cn(C2=CCC3C4CC=C5C[C@@H](NC(=O)c6ccc(S(C)(=O)=O)cc6)CC[C@]5(C)C4CC[C@]23C)cn1` (stereo partly drawn) [Compound 35, N-((3S,10R,13S)-17-(4-methyl-1H-imidazol-1-yl)-10,13-dimethyl-2,3,4,7,8,9,10,11,12,13,14,15-dodecahydro-1H-cyclopenta[a]phenanthren-3-yl)-4-(methylsulfonyl)benzamide], at AR, half-maximal degradation (DC50) was put at 1.56 µM and the “AR degradation activity, improvement compared to Galeterone” value came to 6.7 times.
